Laboratory results from publication PMC10309190, “A PI(3,5)P2 reporter reveals PIKfyve activity and dynamics on macropinosomes and phagosomes” (The Journal of Cell Biology, 2023).

What was measured:
[1] = target: T1, SnxA (full-length SnxA-GFP; DDB_G0289833) (Dictyostelium discoideum, UniProt Q54GY1); assay: microscopy of GFP recruitment to membrane-coated beads, probe titration; type: binding; conditions: 5 mol% phosphoinositide in 95 mol% POPC bilayers on silica beads; 150 mM NaCl, 20 mM Hepes, 0.5 mM TCEP, room temperature; acyl chains not given; avidity of dimer; read-out: apparent Kd
T1 construct: full length (PX domain plus coiled coil); N-terminal 6xHis and eGFP kept; E. coli BL21; mostly dimer, apparent 181 kD by mass photometry
T1 sequence (Q54GY1 1-186): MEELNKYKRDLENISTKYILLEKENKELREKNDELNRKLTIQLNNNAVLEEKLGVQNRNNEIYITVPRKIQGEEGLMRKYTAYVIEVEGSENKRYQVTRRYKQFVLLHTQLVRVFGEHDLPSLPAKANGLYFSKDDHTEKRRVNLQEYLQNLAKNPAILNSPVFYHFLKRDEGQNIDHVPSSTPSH

[2] = target: T2, 2xPX (2xPX-GFP, tandem repeat of the SnxA PX domain) (Dictyostelium discoideum, UniProt Q54GY1); assay: as above; type: binding; conditions: 5 mol% phosphoinositide in 95 mol% POPC bilayers on silica beads; 150 mM NaCl, 20 mM Hepes, 0.5 mM TCEP, room temperature; acyl chains not given; avidity of tandem domains; read-out: apparent Kd
T2 construct: gene DDB_G0289833; N-terminal 6xHis and eGFP kept; E. coli BL21; single population, apparent 104 kD by mass photometry

[3] = target: full-length SnxA, recombinant N-terminal 6xHis and eGFP fusion (Dictyostelium discoideum); assay: mass photometry; recombinant GFP fusions diluted to 25-50 nM in 250 mM NaCl, 20 mM Hepes, 0.5 M TCEP (so in the source) immediately before measurement; OneMP mass photometer; monomer to dimer

Substance | Kd [1] [nM] | Kd [2] [nM] | percent of the protein at the dimer's apparent mass [3] [%] | stoichiometry N [3]
PI(3,5)P2 | 187 ± 13 | 218 ± 7 |  | 
full-length SnxA, recombinant N-terminal 6xHis and eGFP fusion (natural protein) |  |  | 85 | 2
